The values that follow are results of earlier work, collected in US20040166503A1, “Methods for gene expression profiling” (priority 2004, published 2004).

In data set [1] the test system is resistant HL60 human promyelocytic cell line. The note with it: inhibition of glutathione synthesis by BSO.
The test system of a further data set is p38 kinase. The note with it: during TLK286 induced apoptosis.
For data set [2], the system named is bone marrow stem cells and peripheral white blood cell.
Data set [3] concerns c-Jun N-terminal kinase (JNK). The note with it: during TLK286 induced apoptosis.
Data set [4] deals with M7609 xenografts expressing different levels of GST P1-1. Particulars: murine xenografts of M7609; responses positively correlated with GST P1-1 expression.
In data set [5] the test system is extracellular signal-regulated kinase (ERK). The note with it: during TLK286 induced apoptosis.
The subject of data set [6] is cancer cell lines and tumors. The note with it: wide variety of cancer cell lines and tumors.

Take `CCCCS(=N)(=O)CCC(N)C(=O)O` (stereo not shown) [BSO]: in data set [1], the “effect on sensitivity of resistant cells to TLK286” value was “increases the sensitivity”.
As to `N[C@@H](CCC(=O)N[C@@H](CS(=O)(=O)CCOP(=O)(N(CCCl)CCCl)N(CCCl)CCCl)C(=O)N[C@@H](C(=O)O)c1ccccc1)C(=O)O` [TLK286, gamma-glutamyl-alpha-amino-beta(2-ethyl-N,N,N′,N-tetrakis(2-chloroethyl)phosphorodiamidate)-sulfonyl-propionyl-(R)-(−)phenylglycine], in the data set with p38 kinase, the p38 kinase activation result is listed as “not”. Moreover, in data set [2], the “myelosuppressive effect (toxicity)” value is listed as “only mildly toxic”. For the same compound, the JNK activation entry in data set [3] is listed as “activated”. For the same compound, the “antitumor activity in vivo” value in data set [4] is listed as “antitumor activity has also been observed”. In addition, the ERK activation result in data set [5] is “not”. Besides, in data set [6], the cytotoxicity result is recorded as “cytotoxic”.
